Here are results for five compounds from patent publication US9458100B2, “Synthesis and growth regulatory activity of a prototype member of a new family of aminothiol radioprotectors” (Wisconsin Alumni Research Foundation, priority 2012, dated 2016).

Like-named read-outs stand apart in the source and are kept apart here. Marks after values point to notes of the source that are not given here.

Data set [1] relates to mice exposed to whole-body radiation. The experiment in a line: Mouse survival after whole-body radiation (systemic radioprotection). It is filed as in vivo. The conditions noted are these: for Mouse % Survival: 8.63 Gy whole-body radiation. As for the experimental part:
Exposure of a control mouse to the same dose of radiation in the absence of PrC-210 administration (e.g., a water-only control) is 100% lethal (FIG. 4, “IP Water”). Each treatment group contained 20 mice. The dose of PrC-210 was 252 μg/g body weight.
In additional experiments, female ICR mice received 200 μl doses (e.g., 900 μg/g body weight) of PrC-210 dissolved in water by gavage at the indicated times prior to irradiation (See FIG. 6). At 0 min, mice were irradiated with 9.0 Gy of whole-body radiation in a CS^137 irradiator. Mice were returned to housing and their weights and survival were monitored for the next 60 days. There were six mice in each of the treatment groups.
[…] Survival rates greater than the 0% Survival seen in the vehicle control group were attributed to systemic radioprotection conferred by the systemically administered radioprotector molecule.

The subject of data set [2] is mouse. The data set can be described thus: Systemic toxicity, maximum tolerated dose in mouse. It is filed as in vivo. The conditions noted are these: for Mouse IP MTD: intraperitoneal. How it is done: (§1) During the development of embodiments of the technology provided herein, embodiments of compounds described herein and/or encompassed by the synthetic schemes were tested for systemic toxicity and radioprotection in mouse and rat models (Table 2). Toxic doses are shown as the “maximum tolerated dose” (“MTD”) for intraperitoneal (IP), oral, and subcutaneous (SC) administration routes in Table 2.
(§2) Doses expressed as a fraction of “MTD” are expressed as a fraction of the “maximum tolerated dose”. Doses expressed in units of ug/g correspond to micrograms of the compound per gram of body weight.

Data set [3] relates to ferret. The experiment in a line: Ferret retch/emesis model. Type of data set: in vivo.
Data set [4] concerns mouse. The conditions noted are these: intraperitoneal; published value; cited from earlier work.
In data set [5] the test system is radiation dermatitis in rat skin. The data set can be described thus: Rat radiation dermatitis assay with topical application before irradiation. The conditions noted are these: topical in ethanol/water vehicle four times in the 2 h before 17.33 Gy; scored 13 days later. Type of data set: in vivo. As for the experimental part:
To determine if PrC-210 could function as a topical radioprotector that could prevent radiation dermatitis when applied prior to a cancer patient's daily radiotherapy, a rat assay that realistically mimics human radiation dermatitis was created. This assay quantifies the severity of radiation dermatitis in rat skin 13 days after a single radiation dose of 17.33 Gy. In this study, PrC-210 was applied to rat skin in an ethanol/water delivery vehicle four times in the 2 h before irradiation, and control rats received only topical vehicle before irradiation (FIG. 2). Additional drug/irradiation groups of three rats each received either the alkyl-thiol moiety or the alkyldiamine moiety from PrC-210 in the same delivery vehicle. Following the 17.33 Gy irradiation of a […] patch of dorsal skin on the rats' backs, rats were scored 13 days later.
Molecules were applied to skin in an alcohol/water delivery vehicle prior to receiving a 17.33 Gy radiation dose to the 1.5 cm×3.0 cm skin site. Radiation dermatitis severity (e.g., % of the site covered by scab material) was scored 13 days following irradiation.

The test system of data set [6] is rats exposed to whole-body radiation. The experiment in a line: Rat survival after whole-body radiation (oral radioprotection). It is filed as in vivo. As for the experimental part:
Female Sprague-Dawley rats received 200 μl doses of PrC-210 dissolved in water by gavage a time of 60 minutes prior to irradiation (time=−60 min). […] Rats were returned to housing and their weights and survival were monitored for the next 60 days. There were six rats in each of the treatment groups. As shown by FIG. 5, oral PrC-210 confers 100% protection against an otherwise 100% lethal dose of whole-body radiation.

Data set [7] concerns rat. The experiment in a line: Rat aortic blood pressure monitoring (hypotension side effect). It is filed as in vivo. The conditions noted are these: anesthetized rats, intraperitoneal injection. As for the experimental part: Blood pressure was monitored in the aortic artery of rats using a high-fidelity pressure transducer. Rats were continually anesthetized with 2% isofluorane, and drug doses were administered by intraperitoneal injection. Rats received intraperitoneal saline injections until these injections induced no change in monitored blood pressure. Indicated doses of PrC-210 or amifostine (FIG. 8) were administered and changes in blood pressure and heart rate were recorded. A condensed summary of drug-induced changes for all cannulated rats is shown in panel C. Doses of epinephrine (Epi; hypertensive) were also recurrently admininesterod to test if previous PrC-210 or amifostine doses could be modified.

A short description of data set [8]: Biodistribution of intravenous bolus of 14C PrC-210 in rat. It is filed as in vivo. How it is done: During the development of embodiments of the technology provided herein, experiments were conducted to test the biodistribution of an intravenous bolus dose of radiolabeled (e.g., ^14C) PrC-210 in a rat host. In these experiments, an intravenous bolus of 100 μCi of ^14C PrC-210 was administered into an indwelling catheter in a 300 g rat.

Data set [9] concerns rat. The experiment in a line: Systemic toxicity, maximum tolerated dose in rat. Type of data set: in vivo. As for the experimental part: as §1, §2

With `NCC(CN)CS` [PrC-211], the entries for the “Mouse % Survival” value in data set [1] (at IP 0.25 MTD: 118 ug/g), in [1] (at IP 0.5 MTD: 238 ug/g) and in data set [1] (at IP 0.9 MTD: 427 ug/g) were 37%, 47% and 100%, respectively. Further, the “Mouse IP MTD” value in data set [2] was determined as 475 μg/g b.w.
Regarding `NCCCNCCSP(=O)(O)O` [Amifostine, amifostine, reference compound], in data set [1] (at IP 0.5 MTD: 400 ug/g), the “Mouse % Survival” value is 88%. Besides, the retch/emesis responses entry in data set [3] (in vivo) is on record as “caused retch/emesis responses in each of the four ferrets tested”. Moreover, the “Mouse IP MTD” value in data set [2] is given as 760^d μg/g b.w; in [4], 800^c μg/g b.w.
In the case of `CNCC(CS)CNC` [PrC-210, 3-(methyl-amino)-2-((methylamino)methyl)propane-1-thiol], the “prevention of radiation dermatitis” value in data set [5] is “completely prevent radiation dermatitis”. The entries for the “Mouse % Survival” value in data set [1] (at IP 0.5 MTD: 211 ug/g), in data set [1] (at IP 0.5 MTD: 252 ug/g) and in data set [1] (at ORAL 0.87 MTD: 1550 ug/g (only dose tested)) were 98%, 100% and 100%, respectively. The “protection against otherwise 100% lethal whole-body radiation” value was 100% in [1] (female ICR mice, oral 900 μg/g body weight, 60 minutes before 9.0 Gy) and 100% in data set [6] (female Sprague-Dawley rats, oral gavage 60 minutes prior, monitored 60 days). For the same compound, the survival in data set [1] (mouse, IP 252 μg/g body weight, 30 minutes before 8.75 Gy whole-body radiation) is 100%. For the same compound, in data set [6] (at ORAL 0.5 MTD: 900 ug/g, 9.5 Gy whole-body radiation), the “Rat % Survival” value is on record as 100% (at ORAL 0.5 MTD: 900 ug/g). Moreover, the retch/emesis responses result in data set [3] (in vivo) is “zero retching or emesis responses”. Further, the hypotension side effects result in [7] was “does not cause hypotension side effects”. Further, in data set [8] (100 uCi IV), the “Recovery (carcass)” value turned out to be 6.89%. For the same compound, the Cmax in [8] (100 uCi IV 14C PrC-210) was 21,400 ng-eq/g. In addition, in data set [8] (100 uCi IV 14C PrC-210), the time of peak concentration (Tmax) is 30 min. Moreover, the “Recovery2 (systemic)” value in data set [8] (100 uCi IV, excreta + carcass) is recorded as 81.23%. Further, the “Recovery3 (total)” value in data set [8] (100 uCi IV, systemic + skin + cage wash + cage wipe + enclosure) came to 84.20%. The “Recovery1 (excreta)” value in data set [8] (100 uCi IV, urine + urine wipes + feces) is on record as 74.34%. Also, in [8] (intravenous 14C PrC-210), the “administered radioactivity eliminated via feces” value is “approximately 10%”. In addition, the “administered radioactivity eliminated via urine” value in [8] (intravenous 14C PrC-210) was “approximately 50%”. Further, the “Mouse IP MTD” value in data set [2] (determined using best fit analysis of survival data) is listed as 422^b μg/g b.w; in data set [2] (determined using probit analysis of survival data), 504^a μg/g b.w. For the same compound, the “Mouse ORAL MTD” value in data set [2] (oral) amounted to 1780 μg/g b.w. In addition, in data set [2] (subcutaneous), the “Mouse SC MTD” value is listed as 431 μg/g b.w. Further, the “Rat IP MTD” value in [9] (intraperitoneal) worked out at 485 μg/g b.w. In addition, in [9] (oral), the “Rat ORAL MTD” value came to 1974 μg/g b.w.
Turning to `CN(C)C(=O)C(CCN1CCC(O)(c2ccc(Cl)cc2)CC1)(c1ccccc1)c1ccccc1` [Loperamide], the retch/emesis responses entry in data set [3] (ferret equivalent of highest human dose, loperamide as positive control 14 days later) was “robust retch/emesis response in each of the 14 ferrets”.
As to `CNCC(CNC)CSSCC(CNC)CNC` [PrC-210 Disulfide], the results for the “Mouse % Survival” value in data set [1] (at IP 0.5 MTD: 78 ug/g) and in [1] (at IP 0.9 MTD: 140 ug/g) were <5% and 37%, respectively. The “Mouse IP MTD” value in data set [2] is on record as 155 μg/g b.w.
